Experimental data: ChEMBL document CHEMBL4765282, “Design, synthesis and biological evaluation of 1H-pyrazolo [3,4-d]pyrimidine derivatives as PAK1 inhibitors that trigger apoptosis, ER stress and anti-migration effect in MDA-MB-231 cells” (Eur J Med Chem, 2020)
pIC50: −log10 of the molar value. Active and inactive are the calls of the source. The calls are words filed in the database; no cut-off is given here.

Assays:
Homo sapiens = species: Homo sapiens; assay: Selectivity ratio of IC50 for inhibition of PAK2 (unknown origin) to IC50 for inhibition of PAK1 (unknown origin)
[1] = biological target: Serine/threonine-protein kinase PAK 2 (Homo sapiens, UniProt Q13177); assay: Inhibition of PAK2 (unknown origin) […] measured after 40 mins by ADP-glo kinase assay
[2] = biological target: T1, Serine/threonine-protein kinase PAK 1 (Homo sapiens, UniProt Q13153); assay: Inhibition of PAK1 phosphorylation at Thr212 residues in human MDA-MB-231 cells at 10 to 40 uM measured after 24 hrs by Western blot analysis; type: cell-based; conditions: dose 10-40 µM
[3] = biological target: T1, Serine/threonine-protein kinase PAK 1; assay: Inhibition of PAK1 in human MDA-MB-231 cells assessed as reduction in ERK expression at 10 to 40 uM measured after 24 hrs by Western blot analysis; type: cell-based; conditions: dose 10-40 µM
[4] = biological target: T1, Serine/threonine-protein kinase PAK 1; assay: Inhibition of PAK1 in human MDA-MB-231 cells assessed as reduction in MEK1/2 phosphorylation at ser217/221 residues at 10 to 40 uM measured after 24 hrs by Western blot analysis; type: cell-based; conditions: dose 10-40 µM
[5] = biological target: T1, Serine/threonine-protein kinase PAK 1; assay: Inhibition of PAK1 in human MDA-MB-231 cells assessed as reduction in ERK1/2 phosphorylation at Thr202/Tyr204 residues at 10 to 40 uM measured after 24 hrs by Western blot analysis; type: cell-based; conditions: dose 10-40 µM
MDA-MB-231 [6] = assay: Induction of apoptosis in human MDA-MB-231 cells assessed as increase in late apoptosis measured after 24 hrs by Annexin V-FITC/propidium iodide staining based flow cytometry; type: functional, cell-based
MDA-MB-231 [7] = assay: Induction of apoptosis in human MDA-MB-231 cells assessed as viable cells at 10 uM measured after 24 hrs by Annexin V-FITC/propidium iodide staining based flow cytometry (reference value: 98.46%); type: functional; conditions: read-out: Activity
MDA-MB-231 [8] = assay: Induction of apoptosis in human MDA-MB-231 cells assessed as necrotic cells at 20 uM measured after 24 hrs by Annexin V-FITC/propidium iodide staining based flow cytometry (reference value: 0.16%); type: functional
MDA-MB-231 [9] = assay: Induction of apoptosis in human MDA-MB-231 cells assessed as late apoptotic cells at 40 uM measured after 24 hrs by Annexin V-FITC/propidium iodide staining based flow cytometry (reference value: 0.57%); type: functional
MDA-MB-231 [10] = assay: Induction of apoptosis in human MDA-MB-231 cells assessed as increase in PARP cleavage at 10 to 40 uM measured after 24 hrs by Western blot analysis; type: functional, cell-based; conditions: dose 10-40 µM
[11] = Effect on HERPUD1 gene expression in human MDA-MB-231 cells by Trizol reagent based RNA sequencing analysis relative to control; type: functional
[12] = Effect on DDIT4 gene expression in human MDA-MB-231 cells by Trizol reagent based RNA sequencing analysis relative to control; type: functional
[13] = Effect on GARS gene expression in human MDA-MB-231 cells by Trizol reagent based RNA sequencing analysis relative to control; type: functional
[14] = Effect on SHMT2 gene expression in human MDA-MB-231 cells by Trizol reagent based RNA sequencing analysis relative to control; type: functional
[15] = Effect on DDIT3 gene expression in human MDA-MB-231 cells by Trizol reagent based RNA sequencing analysis relative to control; type: functional
[16] = Effect on GDF15 gene expression in human MDA-MB-231 cells by Trizol reagent based RNA sequencing analysis relative to control; type: functional
[17] = Effect on ASNS gene expression in human MDA-MB-231 cells by Trizol reagent based RNA sequencing analysis relative to control; type: functional
[18] = Effect on CHAC1 gene expression in human MDA-MB-231 cells by Trizol reagent based RNA sequencing analysis relative to control; type: functional
[19] = Effect on EGR1 gene expression in human MDA-MB-231 cells by Trizol reagent based RNA sequencing analysis relative to control; type: functional
[20] = Effect on BEX2 gene expression in human MDA-MB-231 cells by Trizol reagent based RNA sequencing analysis relative to control; type: functional
[21] = Effect on MMP3 gene expression in human MDA-MB-231 cells by Trizol reagent based RNA sequencing analysis relative to control; type: functional
[22] = Effect on CTGF gene expression in human MDA-MB-231 cells by Trizol reagent based RNA sequencing analysis relative to control; type: functional
[23] = Effect on KLHDC7B gene expression in human MDA-MB-231 cells by Trizol reagent based RNA sequencing analysis relative to control; type: functional
[24] = Effect on TCP10L gene expression in human MDA-MB-231 cells by Trizol reagent based RNA sequencing analysis relative to control; type: functional
[25] = Effect on GRID1 gene expression in human MDA-MB-231 cells by Trizol reagent based RNA sequencing analysis relative to control; type: functional
MDA-MB-231 [26] = assay: Upregulation of ATF4 expression in human MDA-MB-231 cells at 10 to 40 uM measured after 24 hrs by Western blot analysis; type: functional, cell-based; conditions: dose 10-40 µM
MDA-MB-231 [27] = assay: Upregulation of phosphorylated PERK Thr980 expression in human MDA-MB-231 cells at 10 to 40 uM measured after 24 hrs by Western blot analysis; type: functional, cell-based; conditions: dose 10-40 µM
MDA-MB-231 [28] = assay: Upregulation of XBP-1s expression in human MDA-MB-231 cells at 10 to 40 uM measured after 24 hrs by Western blot analysis; type: functional, cell-based; conditions: dose 10-40 µM
MDA-MB-231 [29] = assay: Upregulation of CHOP expression in human MDA-MB-231 cells at 10 to 40 uM measured after 24 hrs by Western blot analysis; type: functional, cell-based; conditions: dose 10-40 µM
MDA-MB-231 [30] = assay: Upregulation of PERK expression in human MDA-MB-231 cells transfected with si-PAK1 at 10 uM measured after 24 hrs by Western blot analysis; type: functional, cell-based
MDA-MB-231 [31] = assay: Inhibition of AKT phosphorylation at Ser473 residue in human MDA-MB-231 cells at 20 uM measured after 24 hrs by immunofluorescence analysis; type: cell-based
MDA-MB-231 [32] = assay: Inhibition of PI3K/AKT/mTOR signaling in human MDA-MB-231 cells assessed as reduction in AKT phosphorylation at 10 to 40 uM after 24 hrs by Western blot analysis; type: cell-based; conditions: dose 10-40 µM
MDA-MB-231 [33] = assay: Down regulation of JNK expression in human MDA-MB-231 cells at 20 uM measured after 24 hrs by immunofluorescence assay; type: functional, cell-based
[34] = biological target: Mitogen-activated protein kinase 8/9 (Homo sapiens) (UniProt P45983+P45984); assay: Inhibition of JNK1/2 in human MDA-MB-231 cells assessed as reduction in SAPK/JNK phosphorylation at […] residues at 10 to 40 uM after 24 hrs by Western blot analysis; type: cell-based; conditions: dose 10-40 µM
MDA-MB-231 [35] = assay: Inhibition of human MDA-MB-231 cell migration measured after 24 hrs by phase contrast microscopy based transwell assay; type: functional
MDA-MB-231 [36] = assay: Up regulation of FOXO3a expression in human MDA-MB-231 cells at 10 to 40 uM measured after 24 hrs by Western blot analysis; type: functional, cell-based; conditions: dose 10-40 µM
MDA-MB-231 [37] = assay: Up regulation of MMP-2 expression in human MDA-MB-231 cells at 10 to 40 uM measured after 24 hrs by Western blot analysis; type: functional, cell-based; conditions: dose 10-40 µM

T1 sequence (Q13153 whole entry): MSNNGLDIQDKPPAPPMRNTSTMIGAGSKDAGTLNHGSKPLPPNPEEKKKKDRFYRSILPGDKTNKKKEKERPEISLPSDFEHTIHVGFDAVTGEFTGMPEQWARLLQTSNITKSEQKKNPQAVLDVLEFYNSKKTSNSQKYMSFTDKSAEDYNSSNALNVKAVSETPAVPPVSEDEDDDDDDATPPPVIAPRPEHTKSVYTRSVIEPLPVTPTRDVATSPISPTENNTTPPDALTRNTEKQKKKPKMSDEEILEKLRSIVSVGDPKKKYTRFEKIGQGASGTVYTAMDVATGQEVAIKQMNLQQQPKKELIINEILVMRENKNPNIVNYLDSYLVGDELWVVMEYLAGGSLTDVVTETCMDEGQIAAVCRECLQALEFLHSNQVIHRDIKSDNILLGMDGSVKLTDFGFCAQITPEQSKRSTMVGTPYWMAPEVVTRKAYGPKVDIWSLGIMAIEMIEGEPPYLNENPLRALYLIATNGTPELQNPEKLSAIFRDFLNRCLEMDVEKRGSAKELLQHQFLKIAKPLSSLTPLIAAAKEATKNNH
Chain of Serine/threonine-protein kinase PAK 2 (Q13177 whole entry): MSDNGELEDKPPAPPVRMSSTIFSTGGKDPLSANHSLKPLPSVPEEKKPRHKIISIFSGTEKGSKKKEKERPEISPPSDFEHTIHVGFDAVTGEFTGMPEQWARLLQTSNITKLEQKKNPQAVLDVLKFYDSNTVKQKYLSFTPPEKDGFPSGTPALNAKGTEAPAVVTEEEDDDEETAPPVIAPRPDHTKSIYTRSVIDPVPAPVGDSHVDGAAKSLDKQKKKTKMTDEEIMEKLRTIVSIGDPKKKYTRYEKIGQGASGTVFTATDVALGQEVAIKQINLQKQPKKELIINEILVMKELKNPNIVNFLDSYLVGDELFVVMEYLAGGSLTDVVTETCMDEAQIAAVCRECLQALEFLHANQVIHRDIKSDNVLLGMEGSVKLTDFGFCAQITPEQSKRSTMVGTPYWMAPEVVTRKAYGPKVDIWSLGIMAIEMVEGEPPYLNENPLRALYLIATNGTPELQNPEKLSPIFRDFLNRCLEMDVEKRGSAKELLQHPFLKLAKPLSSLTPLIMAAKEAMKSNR
Chain of Mitogen-activated protein kinase 8/9 (Homo sapiens) (P45983 whole entry, looked up): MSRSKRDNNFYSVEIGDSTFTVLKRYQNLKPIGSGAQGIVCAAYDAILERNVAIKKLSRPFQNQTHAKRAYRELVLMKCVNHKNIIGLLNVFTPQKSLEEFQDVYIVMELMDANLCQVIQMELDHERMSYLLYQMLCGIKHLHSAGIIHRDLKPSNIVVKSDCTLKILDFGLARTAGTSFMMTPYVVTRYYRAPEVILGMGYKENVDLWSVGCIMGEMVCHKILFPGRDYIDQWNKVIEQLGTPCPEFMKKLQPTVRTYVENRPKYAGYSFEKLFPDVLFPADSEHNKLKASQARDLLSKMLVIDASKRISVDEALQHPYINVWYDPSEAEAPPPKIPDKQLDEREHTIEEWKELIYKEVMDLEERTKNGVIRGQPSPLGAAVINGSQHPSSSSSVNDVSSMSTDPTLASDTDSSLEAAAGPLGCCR
Chain of Mitogen-activated protein kinase 8/9 (Homo sapiens) (P45984 whole entry, looked up): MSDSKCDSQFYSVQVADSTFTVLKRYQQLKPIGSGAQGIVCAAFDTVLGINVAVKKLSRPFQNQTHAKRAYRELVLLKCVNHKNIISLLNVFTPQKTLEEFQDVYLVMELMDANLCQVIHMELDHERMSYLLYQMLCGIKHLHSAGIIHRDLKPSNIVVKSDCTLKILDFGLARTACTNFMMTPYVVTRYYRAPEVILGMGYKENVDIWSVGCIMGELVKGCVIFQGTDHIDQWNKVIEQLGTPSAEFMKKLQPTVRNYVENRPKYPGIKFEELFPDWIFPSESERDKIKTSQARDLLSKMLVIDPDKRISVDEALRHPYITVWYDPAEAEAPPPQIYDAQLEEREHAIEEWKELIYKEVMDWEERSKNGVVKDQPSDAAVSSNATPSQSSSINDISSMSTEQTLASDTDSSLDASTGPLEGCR

Ratio IC50 (Homo sapiens): 5
pIC50 [1]: 5.98
inhibition [2]: Active
inhibition [3]: Active
inhibition [4]: Active
inhibition [5]: Active
inhibition [34]: Active
Compound: O=C(Nc1cc(C(F)(F)F)cc(C(F)(F)F)c1)NC1CCN(c2ncnc3[nH]ncc23)CC1
Activity (MDA-MB-231 [6]): Dose-dependent effect
viability at 10 µM (MDA-MB-231 [7]): 88%
Activity (MDA-MB-231 [8]): 0.59%
Activity (MDA-MB-231 [9]): 12.06%
Activity (MDA-MB-231 [10]): Active
fold change (FC) [11]: >2
fold change (FC) [12]: >2
fold change (FC) [13]: >2
fold change (FC) [14]: >2
fold change (FC) [15]: >2
fold change (FC) [16]: >2
fold change (FC) [17]: >2
fold change (FC) [18]: >2
fold change (FC) [19]: >2
fold change (FC) [20]: >2
fold change (FC) [21]: >2
fold change (FC) [22]: >2
fold change (FC) [23]: >2
fold change (FC) [24]: >2
fold change (FC) [25]: >2
Activity (MDA-MB-231 [26]): Active
Activity (MDA-MB-231 [27]): Active
Activity (MDA-MB-231 [28]): Active
Activity (MDA-MB-231 [29]): Active
Activity (MDA-MB-231 [30]): inactive
inhibition (MDA-MB-231 [31]): Active
inhibition (MDA-MB-231 [32]): Active
Activity (MDA-MB-231 [33]): inactive
inhibition (MDA-MB-231 [35]): Active
Activity (MDA-MB-231 [36]): Active
Activity (MDA-MB-231 [37]): Active
